According to US20110065138A1, “Quantitative Method For Detecting Yessotoxins In Fishery Products On Based On The Activation That The Toxin Produces In Cellular Phosphodiesterases And Therapeutic Use Of This Activation” (UNIVERSIDADE DE SANTIAGO DE COMPOSTELA, priority 2003, published 2011):

Columns and labels:
HEP-G2 cells = experiment: HEP-G2 cell growth inhibition by crystal violet staining; assay type: cell-based; conditions: Homo sapiens, HepG2, 10 μM of YTX, 48 hours incubation, absorbance 595 nm
Description: Neoplasic cell growth inhibition is an indicator of antitumor activity widely used to describe antineoplasic properties of new drugs. […] The ability of YTX as a cytotoxic drug for hepatic carcinoma tumor cells is quantified in the present use. Cell growth inhibition can be determined according to different protocols described in the literature. One of these protocols is set forth below in which the response is quantified in the HEP-G2 cell line by means of crystal violet staining and subsequent acetylation.
a.—HEP-G2 cells are seeded on a microtitration plate with a density of 10000 cells per well. They are incubated for 24 hours with growth medium at 37° C. and 5% CO2.
b.—Different concentrations of YTX are added and it is incubated for 48 hours at 37° C. and 5% CO2.
c.—10 μL of 11% glutaraldehyde are added to fix the cells and it is incubated for 15 minutes. It is washed 3-4 times with distilled water.
d.—A 0.1% solution of crystal violet is added and the plate is shaken for 15 minutes.
e.—The dye is removed by washing with distilled water and it is subsequently dried.
f.—10% acetic acid is added and shaking is maintained for 15 minutes.
g.—Absorbance is read in a spectrophotometer at 595 nanometers.
h.—It was found with this protocol that 10 μM of YTX induce cell growth inhibition of about 82+/−1%.

rat mastocytes = experiment: Inhibition of histamine release induced by immunological stimulus (ovalbumin) in rat mastocytes; assay type: cell-based
Description: Immunological activation of mastocytes and basophils requires a temporary increase of cAMP. This increase is indispensable for cell response activation (Botana and MacGlashan, 1994). PDE activation cancels this initial cAMP peak, and therefore prevents cell activation. In the presence of YTX, i.e. with activated PDEs, cell response will be inhibited. The inhibiting effect can be used in antiallergic or antiasthmatic therapeutic strategies, these being two pathologies in which mastocytes play a predominant role (Metcalfe, Baram, D. et al., 1997). The present use describes the quantification of the inhibition that YTX produces on cell activation induced by immunological stimulus in mastocytes in rats. Cell response inhibition can be determined according to different protocols described in the literature. One in which the response is quantified according to the histamine released by mastocytes in rats into the extracellular medium is set forth below (Alfonso, Cabado, A. G. et al., 2000; Estévez, Vieytes, et al., 1994).
a.—The rats are sensitized 15 days before conducting the experiment. […]
g.—The histamine is finally quantified, converting it into a fluorescent molecule by reaction in a base medium with o-phthalic dialdehyde. The reaction is stopped with hydrochloric acid and the fluorescence is read at 360 nm excitation and 460 nm emission.

[1] = system: cellular phosphodiesterases (PDEs); experiment: Activation of cellular phosphodiesterases (destruction of cAMP); assay type: biochemical
Description: A usual way of detecting cellular PDE activity is to observe their ability to destroy cAMP. There is a fluorescent derivative of cAMP, anthraniloyl-cAMP (excitation wavelength: 350 nm, emission wavelength: 445 nm), the fluorescence of which decreases as it degrades. The decrease of fluorescence over time can be expressed as the destruction rate of cAMP. In the presence of PDEs, the destruction rate increases, and if these enzymes are activated, the degradation rate will be even greater. In the present invention the degradation rate of the fluorescent indicator anthraniloyl-cAMP in the presence of PDEs is determined and its variation when samples with YTX are added is studied. Fluorescence is read with a fluorimeter that is prepared for reading microtitration plates. The destruction rate is determined in the presence of several known concentrations of YTX. […]
The method is carried out in a microtitration plate in a temperature range between 22 and 37° C. and the fluorescence is measured at an excitation wavelength of 360 nanometers and an emission wavelength of 460 nanometers.
a.—Test buffer (10 mM Tris HCl+1 mM CaCl2 pH 7.4) is added in all the wells for a final incubation volume of 100 μL, and the corresponding amount, depending on the type of well, of anthraniloyl-cAMP. A first reading is performed for 2 minutes. […]

cellular phosphatases = conditions: in contrast to okadaic acid (Draisci, Lucentini et al., 2000); cited from earlier work

## C=CCC(=C)/C=C/[C@@](C)(O)[C@H]1O[C@@H]2C[C@@H]3O[C@@H]4C[C@@H]5O[C@@H]6C[C@@H]7O[C@@H]8C[C@@H]9O[C@@H]%10C[C@@H]%11O[C@](C)(CCOS(=O)(=O)O)[C@@H](OS(=O)(=O)O)C[C@H]%11O[C@H]%10C[C@H]9O[C@H]8CC[C@@]7(C)O[C@@]6(C)CC[C@H](C)[C@H]5O[C@H]4C[C@@]3(C)O[C@H]2CC1=C [YTX, yessotoxin]
HEP-G2 cells
  inhibition at 10 µM: ~82%
Rat mastocytes
  effect on histamine release activated by immunological stimulus: histamine release inhibitor
[1]
  effect on PDE activity: PDE activator
Cellular phosphatases
  effect on cellular phosphatases: does not inhibit
